Measured values published in patent US10611797B2, “Peptide having anticancer activity, and pharmaceutical composition and dietary supplement composition for preventing and treating cancer, both of which contain same as active ingredient” (IUCF-HYU (INDUSTRY-UNIVERSITY COOPERATION FOUNDATION …, priority 2015, dated 2020).

Legend:
[1] = tested on: glioblastoma cell lines (U251, U87MG, U343); test: MTT cell viability, glioblastoma cell lines; type: cell-based, human; conditions: 0-10 μM, 24-96 h
Protocol: (§2) Liver cancer cell lines (HepG2, Hep3B) were inoculated into 96-well plates at a density of 3000 cells/well, and then 50 μl of culture solution was added thereto. Cells were cultured at 37° C. and 5% CO2 for 1 h. […] Cells were cultured at 37° C. and 5% CO2 for 24, 48, 72, and 96 h. After completion of the culture, the remaining culture solution was removed from the well plates, the cultures were diluted with MTT solution (3-(4,5-dimethylthiazol-2-yl)-2,5-diphenyltetrazole bromide) to a final density of 500 μg/ml, and cells were cultured at 37° C. and 5% CO2 for 3 h. The remaining MTT solution was removed and 150 μl of dimethyl sulfoxide (DMSO) was added. The reaction was carried out at room temperature for 20 min. After completion of the reaction, absorbance was measured using a microplate reader.

[2] = tested on: CD34+ hematopoietic progenitor cells (HPCs); test: Microscopy of hematopoietic progenitor cells and cells differentiating into erythrocytes; type: cell-based, human; conditions: up to 10 μM, 72 h; days 3, 7, 14 of differentiation
Protocol: Cells were observed under an inverted phase contrast microscope and their morphological changes were imaged. The CD34+ hematopoietic progenitor cells were cultured in IMDM media containing 1% BSA. For differentiation induction into erythrocytes, cells were cultured with EPO, SCF, IL-3, and hydrocortisone for the first 7 days, and thereafter, cultured in media supplemented with EPO, SCF, and IL-3 only.

[3] = tested on: human blood cancer cell lines (K562, HEL, HL60); test: MTT cell viability, human blood cancer cell lines; type: cell-based; conditions: 0-10 μM, 24-96 h
Protocol: as §2

[4] = tested on: MDA-MB-231 cell line (LM1 cells) tumors and lung metastasis; test: Mouse model transplanted with MDA-MB-231 (LM1) breast cancer cell line; type: in vivo
Protocol: The collected blood was subjected to a fundamental CBC using a Coulter LH 750 Hematology analyzer. After the tumors were weighed, the tumors and the major organs were stained with 4% formaldehyde. Tissue slices were prepared through paraffin section and stained with hematoxylin/eosin. Acquired data were statistically analyzed using the Excel program.

MEL cell line = test: Cell cycle analysis by FACS, MEL; type: cell-based, mouse; conditions: 0, 1, 2, 3, 10 μM, 48 h
Protocol: (§1) 5×10^5 cells of each of MEL, K562, MCF-10A, and MDA-MB-231 cell lines were inoculated into 100 mm dishes. 24 h after inoculation, cells were treated with Peptide 5-2C such that the final concentrations were 0, 1, 2, 3, and 10 μM. 48 h after Peptide 5-2C treatment, cells were collected by trypsin treatment. Thereafter, 1×10^6 cells were suspended in 0.5 ml PBS and dissociated into single cells by pipetting. The cell suspension was transferred to a centrifugal tube containing 4.5 ml of 70% ethanol and allowed to stand at 4° C. for 2 h to immobilize the cells. A cell sediment was obtained by centrifugation, washed with 5 ml of PBS solution, sufficiently suspended in 1 ml of PI staining solution, and stained in the dark for 30 min. Cell fluorescence was measured in BD FACSAria and cell cycle was analyzed using the software provided from the same company.

CP2c = test: Luciferase reporter assay of CP2c transcriptional activity in 293T cells; type: cell-based, human; conditions: 2 μM, 48 h, wild-type CP2c binding sites, compared with FQI1
Protocol: 293T cells were inoculated into a 12-well plate at a density of 1×10^5 cells/well. 12 h after inoculation, cells were transfected with combinations of a reporter vector (the wild-type reporter links the enhancer sequence of the GATA-1 gene including twice repeated CP2c-binding sites to the upstream of the luciferase gene and Mut 1/3, Mut 2/4, and Mut 1-4 reporters cause mutations of the CP2c binding sites present in the enhancer sequence) and various Flag-CP2c, HA-CP2b, and HA-PIAS1 expression vectors by using the effectene method. After 1-h culture, cells were treated with FQI1, Peptide 5C, and Peptide 5-2C at concentrations of 2 μM, followed by 48-h culture. Cells were harvested and lysed in 250 μl of passive cell lysis buffer (Promega) to obtain an extract. 20 μl of the cell extract and a dual-luciferase assay kit (Promega) were used to measure the activity of the labeled luciferase gene in GLOMAX (Promega) (the expression of each expression vector was confirmed by Western blotting).

[5] = tested on: glioblastoma cell lines (U343, U373MG, U251, U87MG); test: IC50 of Peptide 5-2C over time in glioblastoma cell lines; type: cell-based, human; conditions: one-time treatment
Protocol: After one-time treatment of various glioblastoma cell lines (U343, U373MG, U251, and U87MG) with Peptide 5-2C, IC50 values were measured with time using the Graph Prism Pad 6 program.

MDA-MB-231 cell line = test: Electron microscopy of cell morphology, MDA-MB-231; type: cell-based, human; conditions: 2 μM, 24 and 48 h
Excerpt: The collected cells were washed once with physiological saline.

MCF-10A cell line = test: Cell cycle analysis by FACS, MCF-10A; type: cell-based, human; conditions: 0, 1, 2, 3, 10 μM, 48 h
Protocol: as §1

[6] = tested on: human embryonic stem cells (hESCs, H9)
Excerpt: MEF cells labeled with rhodamine were often used to distinguish them from hESC-derived cells.

[7] = tested on: normal cell lines (MCF10A, BEAS2B, hMSCs, mouse primary T cells)
Protocol: (§3) Liver cancer cell lines (HepG2, Hep3B), a human embryonic kidney cell line (293T), breast cancer cell lines (MCF-7, MDA-MB-231), blood tumor cell lines (K562, HEL, HL60), glioblastoma cell lines (U251, U373MG, U87MG), a mammary epithelial cell line (MCF10A), a lung epithelial cell line (BEAS2B), human mesenchymal stem cells (hMSCs), and mouse primary T cells (resting and activated T cells) were inoculated into 96-well plates at a density of 3,000 cells/well, supplemented with 50 μl of culture solution, and cultured at 37° C. and 5% CO2 for 1 h. […] After completion of the culture, cells were observed under an inverted phase contrast microscope and their morphological changes were imaged.

[8] = tested on: A431 human epidermoid carcinoma cell line tumors; test: Mouse model transplanted with A431 epidermoid carcinoma cell line; type: in vivo; conditions: 1.7 and 3.5 mg/kg, tail vein, every other day, five times, day 13
Protocol: After the tumors were weighed, the tumors and the major organs were stained with 4% formaldehyde. Tissue slices were prepared through paraffin section and stained with hematoxylin/eosin. Acquired data were statistically analyzed using the Excel program.

[9] = tested on: breast cancer cell lines (MCF7, MDA-MB-231); test: MTT cell viability, breast cancer cell lines; type: cell-based, human; conditions: 0-10 μM, 24-96 h
Protocol: as §2

[10] = tested on: K562 cell line and MDA-MB-231 cell line; test: Cell cycle analysis by FACS, K562 and MDA-MB-231; type: cell-based, human; conditions: 0, 1, 2, 3, 10 μM, 48 h
Protocol: as §1

[11] = tested on: human embryonic kidney cancer cell line (293T); test: MTT cell viability, 293T; type: cell-based; conditions: 0-10 μM, 24-96 h
Protocol: as §2

[12] = tested on: liver cancer cell lines (HepG2, Hep3B); test: MTT cell viability, liver cancer cell lines; type: cell-based, human; conditions: 0-10 μM, 24-96 h
Protocol: as §2

[13] = tested on: U343 glioblastoma cell line tumors; test: Mouse model transplanted with U343 glioblastoma cell line; type: in vivo; conditions: 3 mg/kg directly into tumor sites every three days, day 70, vs physiological saline
Protocol: U343 glioblastoma cell line (2.5×10^6 cells/50 μl) was injected subcutaneously into the backs of 5-week-old male BALB/C nude mice (n=6/group), Peptide 5-2C (3 mg/kg) was directly injected into the tumor sites every three days from the time when the tumor sizes increased to about 8 mm^2, the body weights of the mice and the volumes of the tumors were measured, the mice were sacrificed on day 70 after the peptide injection, and the tumors, blood, and major organs were excised. The tumor sizes were measured using a vernier calipers and the tumor volumes were calculated by (major axisxminor axis^2)/2. Peripheral blood was collected from the ophthalmic artery of each mouse using a microcapillary coated with EDTA and stored in a sample tube coated with 5.4 mg EDTA. The tumors and the major organs were excised by dissection. The collected blood was subjected to a fundamental complete blood cell count (CBC) using a Coulter LH 750 Hematology analyzer. After the tumors were weighed, the tumors and the major organs were stained with 4% formaldehyde. Tissue slices were prepared through paraffin section and stained with hematoxylin/eosin. Acquired data were statistically analyzed using the Excel program.

[14] = tested on: human mesenchymal stem cells (hMSC)
[15] = tested on: human embryonic stem cell line (H9) and co-cultured cells; test: Microscopy of human embryonic stem cell line (H9) in co-culture; type: cell-based
Protocol: Two colonies of a human embryonic stem cell line (H9) per well were inoculated into 96-well plates on which normal embryonic epithelial cells or embryonic epithelial cells fluorescently stained with rhodamine were plated, followed by culture for 24 h.

[16] = tested on: cancer cell lines (HepG2, Hep3B, 293T, MCF-7, MDA-MB-231, K562, HEL, HL60, U251, U373MG, U87MG); test: Microscopic observation of growth inhibition and apoptosis, cancer cell lines; type: cell-based, human; conditions: 2 μM, 48 h
Protocol: as §3

MCF7 cell line = test: Western blotting of cell cycle-related marker proteins in MCF7; type: cell-based, human; conditions: 2 μM for 0-72 h; 1, 2, 3 μM for 48 h
Protocol: 1×10^5 cells of MCF7 breast cancer cell line were inoculated into a 6-well plate. 24 h after inoculation, cells were treated with Peptide 5-2C at a final concentration of 2 μM. After 0, 24, 48, and 72 h, cell extracts were collected in the same manner as in Example 6. Western blotting was performed using various antibodies against cell cycle-related marker genes. On the other hand, cell extracts were obtained from the groups treated with Peptide 5-2C at final concentrations of 1, 2, and 3 μM for 48 h and Western blotting was performed in the same manner.

[17] = tested on: MCF-7, 293T, MDA-MB-231 mammospheres; test: Mammosphere culture of cancer cell lines, microscopy; type: cell-based, human; conditions: 2 μM, 4 days
Excerpt: Cancer cell lines (MCF-7, 293T, MDA-MB-231) were inoculated at a density of 1×10^4 cells/ml into polyHEMA-coated 100 phi Petri dishes. […] Cells were observed under an inverted phase contrast microscope once a day and their morphological changes were imaged. […] Mammosphere culture of cancer cell lines is known to increase the number of cancer stem cells.

[18] = 1.7 and 3.5 mg/kg, tail vein, every three days, five times, day 30, vs control

Protocol for MCF10A cell line: 1.5×10^6 cells of MDA-MB-231 cell line and 5×10^5 cells of MCF10A cell line were inoculated into 100 mm dishes. […] After culture for 24 and 48 h, cells were collected. The culture solution was centrifuged and surface adherent cells were collected by trypsin treatment. The collected cells were washed once with physiological saline. The cell sediment was directly treated twice with 2.5% aqueous glutaraldehyde solution (each for 10 min). Samples for electron microscopy were prepared and imaged in accordance with general methods.

NYPQRPCRGDKGPDC [Peptide 5-2C, Ac-NYPQRPCRGDKGPDC-Amide]
relative viability (MTT), glioblastoma cell lines, compared with FQI1 [1]: more effectively inhibited the growth of the glioblastoma cell lines and induced apoptosis than FQI1 | growth inhibition and apoptosis of HPCs and cells differentiating into erythrocytes (microscopy) [2]: growth inhibition and apoptosis of the cells were not observed | relative viability (MTT), K562, HEL, HL60, compared with FQI1 [3]: slightly effectively inhibited the growth of the glioblastoma cell lines and induced apoptosis compared to FQI1 | reduction of number of tumor foci metastasized to the lung [4, 18]: ~50% | reduction of tumor weights [4, 18]: ~30% | number of leukocytes ([4]; control tumor mice had twice the number of normal mice): close to the normal value | number of cells in subG1 phase in MEL (MEL cell line): the number of cells in the subG1 phase was significantly increased only at high concentrations | CP2c-mediated transcriptional activity (luciferase reporter) (CP2c): effectively inhibit CP2c-mediated transcriptional activity compared to FQI1 | IC50 at 48 h compared with 96 h [5]: the IC50 values after 48 h were similar to those after 96 h | intracellular structural abnormalities in MDA-MB-231 (electron microscopy) (MDA-MB-231 cell line): significantly different intracellular structural abnormalities were observed in the Peptide 5-2C-treated group compared to in the FQI1-treated group | cell cycle changes in MCF-10A (MCF-10A cell line): no substantial changes in cell cycle were observed | cytotoxicity (MTT) in hESCs [6]: no substantial cytotoxicity even at high concentrations | effect on normal cell lines (microscopy) [7]: without substantially affecting the normal cell lines | histologic/anatomic characteristics of the major organs [8]: no significant changes in the histologic/anatomic characteristics of the major organs | reduction of tumor volume [8]: ≥ 70% | reduction of tumor weight [8]: ≥ 60% | relative viability (MTT), breast cancer cell lines, compared with FQI1 [9]: more effectively inhibited the growth of the breast cancer cell lines and induced apoptosis than FQI1 | cell cycle phase distribution in K562 and MDA-MB-231 [10]: the number of cells in the S phase was decreased, the number of cells in the G2/M phase was increased, and an increase in the number of cells in the subG1 phase was dependent on the concentration of Peptide 5-2C | relative viability (MTT), 293T, compared with FQI1 [11]: inhibited the growth of the glioblastoma cell lines and induced apoptosis similarly to FQI1 | relative viability (MTT), liver cancer cell lines, compared with FQI1 [12]: more effectively inhibited the growth of the liver cancer cell lines and induced apoptosis than FQI1 | body weight, major CBC indices, histologic/anatomic characteristics of major organs [13]: there were no differences in the weight of the mice, the major CBC indices of the mice, and the histologic/anatomic characteristics of the major organs | reduction of tumor volume [13]: ~60% | reduction of tumor weight [13]: ~60% | cytotoxicity (MTT) in hMSC [14]: no substantial cytotoxicity even at high concentrations | intracellular structural abnormalities in MCF10A (electron microscopy) (MCF10A cell line): no intracellular structural abnormalities were observed | death of embryonic stem cells and co-cultured cells [15]: none of the embryonic stem cells and the co-cultured cells died | growth inhibition and apoptosis induction of cancer cell lines (microscopy) [16]: specifically inhibited the growth of the cancer cell lines and induced apoptosis | expression of cell cycle-related marker proteins (MCF7 cell line): the expressions of Cyclin E, p21, and p53 increased gradually and the expressions of CDK1 and Cyclin B1 decreased gradually | formation of mammospheres and cell growth [17]: the formation of mammospheres was effectively inhibited and cell growth was decreased
